Measurements: patent US9061015B2, “Stable solid dispersion of a derivative of vinca alkaloid and process for manufacturing it” (PIERRE FABRE MEDICAMENT, priority 2004, dated 2015)

Columns and labels:
[1] = Physicochemical stability on storage at 25° C./60% RH: variation of the content of impurities compared with t0; settings: after 6 months 25° C./60% RH compared with t0
Procedure: Variation of the content of impurities (in % relative) after 6 months 25° C./60% RH compared with t0.
Other hydrophilic polymers such as polyethyleneglycols were tested.

[2] = Required storage temperature (stability); type: physicochemical; settings: regardless of form (amorphous or crystalline) and degree of division

4-0-deacetylvinorelbine impurity, variation of the content [1]: +0.05 % relative
6′-N-methylvinorelbine impurity, variation of the content [1]: +0.05 % relative
6′-N-oxyvinorelbine impurity, variation of the content [1]: +0.37 % relative
S/D6 impurity, variation of the content [1]: +1.02 % relative
Total impurities, variation of the content [1]: +1.87 % relative
temperature at which it must be kept [2]: below −15 °C
SMILES: CCC1=C[C@@H]2CN(C1)Cc1c([nH]c3ccccc13)[C@@](C(=O)OC)(c1cc3c(cc1OC)N(C)[C@H]1[C@@](O)(C(=O)OC)[C@H](OC(C)=O)[C@]4(CC)C=CCN5CC[C@]31[C@@H]54)C2 [Vinorelbine ditartrate, vinorelbine ditartrate]
